Consider 2 compounds from paper PMC6949113, “Preclinical evaluation of AT-527, a novel guanosine nucleotide prodrug with potent, pan-genotypic activity against hepatitis C virus” (PLoS ONE, 2020).

Like-named read-outs stand apart in the source and are kept apart here.

The nature of one data set: Monkey PK study, plasma. The following applies: for plasma concentration, individual monkeys: AT-527 30 mg/kg oral, monkeys 1-3, BQL: <0.0017 AT-511, <0.0032 AT-273; for plasma concentration: male cynomolgus monkeys; for Cmax / MRT last / Tmax / AUC(0-t): male, cynomolgus, cynomolgus monkey; for AUC(0-t): read-out: AUC0-last. The data set is classed as in vivo, cynomolgus monkey. The text has this: Monkey PK study. Male non-naïve cynomolgus monkeys were obtained from Hainan Jingang Laboratory Animal Co., Ltd. (Hainan, China), group housed during the 5-day acclimation period or individually housed during the study in stainless steel mesh cages, provided ad libitum access to RO water, fed twice daily (~120 g Certified Monkey Diet daily; Beijing Vital Keao Feed Co., Ltd., Beijing, China) and given daily treats of fresh fruit. Additional environmental enrichment included classical music and cartoons. Three groups of 5 monkeys each were administered 30, 100 or 300 mg/kg AT-527 as a powder filled in empty porcine hard gelatin capsules (size 0). The monkeys were fasted overnight prior to dosing and fed 4 h after dosing. Three dosages were selected to provide assessments of dose proportionality, the top two representing potential doses for a repeated oral dose toxicity study in monkeys, and the lowest predicted to be more therapeutically relevant. A pill gun was used to place the capsule beyond the root of the animals’ tongues and their mouths were held loosely closed for approximately 30 sec to allow them to move the jaw and swallow the capsule. Immediately following capsule administration, 20 mL of water was given by mouth and then the mouth was opened to ensure the capsule was swallowed. Blood samples (~0.6 mL) were collected up to 72 h from three animals per dose group, and up to 4 h from the remaining two animals in each group, at the same time points described for rats. […] Blood samples were collected with a syringe from a peripheral blood vessel from restrained, non-sedated animals, immediately transferred to pre-chilled tubes containing ~1 mg K2EDTA•2H20 and 20 μL of 5 mM dichlorvos solution, mixed and placed on ice until plasma was prepared by centrifugation as described for rats. Immediately after centrifugation, plasma samples were extracted with 4 volumes ISS2, and the supernatants were clarified by centrifugation (12,000 rpm, 10 min, 4°C) and stored at ≤ -60°C until analyzed by LC-MS/MS as described below. After the 4-hr blood collection, two monkeys per dose group were anesthetized with intravenous injection of pentobarbital sodium (60 mg/kg) and then euthanized as described for rats. […] All analytes were quantitated by LC-MS/MS as described below.
LC-MS/MS analysis of rat and monkey plasma and tissue homogenate supernatants. For the analysis of AT-511 in rat plasma, aliquots were extracted with 10 volumes ISS2. The supernatants were clarified by centrifugation (4000 rpm for 10 min at 4°C) and 3 μL samples were injected onto an Acuity BEH C18 1.7 μm, 2.1 × 50 mm column and a Sciex API 4000 mass spectrometer (ESI positive ion, MRM mode). Mobile phases A (0.025% formic acid (FA) and 1 mM ammonium acetate (AA) in 5% ACN in water) and B (0.025% FA and 1 mM AA in 95% ACN in water) were used to elute samples (3 μL) at 0.6 mL/min with 10% B for 0.3 min followed by linear gradients to 60% B over 0.6 min and to 90% B over 0.2 min, and ending with 90% B for 0.4 min.
PK data analysis. […] The linear/log trapezoidal rule was applied in obtaining the PK parameters.

A further data set has as its system Huh-7 cells. As to the kind of experiment: Intracellular metabolism in Huh-7 replicon cells. The data set is classed as in vitro ADME, human. The method, then:
Huh-7 replicon cells. […] At each time point, the media was removed and the cells were washed twice with cold PBS, collected in 1 mL cold 60% MeOH, and extracted overnight at -20°C with internal standard added. […] Untreated cells were collected at each time point as a negative control.
S3 Protocol. LC-MS/MS analysis of AT-511 and metabolites in cultured cells. The supernatant extracts of each hepatocyte and Huh-7 cell incubation were separately analyzed by four different LC-MS/MS methods for quantitation of phosphoramidates, nucleosides, monophosphates, and triphosphates (methods 1, 2, 3 and 4, respectively), using synthetic reference standards of actually and potentially present compounds and using structurally related analogs as internal standards. Briefly, a Luna PFP (2), 5 µm, 100 x 4.6 mm column and an AB Sciex API-6500 mass spectrometer (ESI positive ion, MRM mode) were used for methods 1-3 and an XBridge Oligonucleotide, BEH C18, 2.5 µm, 50 x 2.1 mm column and a Thermo QE Plus mass spectrometer (electrospray, negative ion mode) were used for method 4. For methods 1 and 2, mobile phases A (10 mM ammonium acetate in water) and B (acetonitrile:methanol, 1:1, v/v) were used to elute samples (5 µL) at 1 mL/min with 15% B for 1.5 min followed by a linear gradient to 75% B over 1 min (method 1) or with 54% B for 1.3 min followed by a linear gradient to 90% B over 1.2 min. […]
Background: In antiviral work, replicon cells carry a viral genome segment that copies itself.

The nature of data set [1]: Intracellular metabolism in rat hepatocytes. Format: in vitro ADME, Sprague Dawley rat. The method, then:
Hepatocytes. […] Cryopreserved male mouse (CD1), and fresh male Beagle dog and male cynomolgus monkey hepatocytes were obtained from BioreclamationIVT (Baltimore, MD) and were similarly plated with Matrigel in 6- or 24-well plates and maintained overnight in InVitroGRO™HI medium with Torpedo™ antibiotic (BioreclamationIVT). The protocol described above for measuring AT-511 and its metabolites in Huh-7 cells was repeated with the five different hepatocytes. Untreated cells were collected at 24 h, and the protein content of the cell lysates were determined using a bicinchoninic acid protein assay kit to assess the number of cells in each incubation. Separately, plated human hepatocytes were incubated for 6 h with 100 μM AT-511, followed by washout periods of 0, 2, 6, 18 and 30 h.
S3 Protocol. LC-MS/MS analysis of AT-511 and metabolites in cultured cells. The supernatant extracts of each hepatocyte and Huh-7 cell incubation were separately analyzed by four different LC-MS/MS methods for quantitation of phosphoramidates, nucleosides, monophosphates, and triphosphates (methods 1, 2, 3 and 4, respectively), using synthetic reference standards of actually and potentially present compounds and using structurally related analogs as internal standards. […]

For orientation: Cmax means the highest concentration seen after dosing. By MRT last is commonly meant a mean duration of stay, worked out from the concentration-time curve. What is called Tmax is the time from dosing to the highest level.

On to `C[C@@]1(F)[C@H](O)[C@@H](CO)O[C@H]1n1cnc2c(=O)[nH]c(N)nc21` [AT-273], for which the “plasma concentration, individual monkeys” value in the data set “Monkey PK study, plasma” (0.500 h) is “BQL”; in “Monkey PK study, plasma” (1.00 h), “BQL”. The plasma concentration result is recorded as “BQL” in the data set “Monkey PK study, plasma” (single oral AT-527 100 mg/kg, 0.500 h, monkey 1); “BQL” in “Monkey PK study, plasma” (single oral AT-527 100 mg/kg, 0.500 h, monkey 2); “BQL” in the data set “Monkey PK study, plasma” (single oral AT-527 300 mg/kg, 0.500 h, monkey 1); “BQL” in the data set “Monkey PK study, plasma” (single oral AT-527 300 mg/kg, 0.500 h, monkey 2); “BQL” in the data set “Monkey PK study, plasma” (single oral AT-527 300 mg/kg, 0.500 h, monkey 3); “BQL” in “Monkey PK study, plasma” (single oral AT-527 300 mg/kg, 1.00 h, monkey 1). Moreover, the plasma concentration entry in the data set “Monkey PK study, plasma” (single oral AT-527 300 mg/kg, 1.00 h, monkey 2) was “BQL”; in “Monkey PK study, plasma” (single oral AT-527 300 mg/kg, 1.00 h, monkey 3), “BQL”; in “Monkey PK study, plasma” (single oral AT-527 300 mg/kg, 72.0 h, monkey 3), “BQL”. Further, the Cmax in “Monkey PK study, plasma” (in vivo, po, 30 mg/kg) came to 140 ± 10 nM; in “Monkey PK study, plasma” (monkey plasma, single oral AT-527 100 mg/kg, read-out: Cmax), 440 ± 170 nM; in the data set “Monkey PK study, plasma” (monkey plasma, single oral AT-527 300 mg/kg, read-out: Cmax), 310 ± 50 nM. The MRT last in the data set “Monkey PK study, plasma” (in vivo, po, 30 mg/kg) worked out at 26.9 ± 1.9 h; in the data set “Monkey PK study, plasma” (in vivo, po, 100 mg/kg) it was 23.7 ± 3.8 h; in “Monkey PK study, plasma” (in vivo, po, 300 mg/kg), 27.9 ± 8.1 h. In addition, the time of peak concentration (Tmax) in the data set “Monkey PK study, plasma” (in vivo, po, 30 mg/kg) worked out at 16 ± 6.9 h; in “Monkey PK study, plasma” (in vivo, po, 300 mg/kg), 17.3 ± 11.5 h. Further, the AUC(0-t) in “Monkey PK study, plasma” (monkey plasma, single oral AT-527 30 mg/kg) is 5.42 ± 1.03 µM·h; in the data set “Monkey PK study, plasma” (monkey plasma, single oral AT-527 100 mg/kg), 10.1 ± 2.6 µM·h; in “Monkey PK study, plasma” (monkey plasma, single oral AT-527 300 mg/kg) it was 12.2 ± 6.1 µM·h.
For the compound `C[C@@]1(F)[C@H](O)[C@@H](COP(=O)(O)OP(=O)(O)OP(=O)(O)O)O[C@H]1n1cnc2c(=O)[nH]c(N)nc21` [AT-9010], the “AUC0-24, intracellular” value in the data set on Huh-7 cells (10 μM AT-511) was 5051 pmol*h/10^6 cells; in data set [1] (10 μM AT-511) it was 3114 pmol*h/10^6 cells. Further, the “Cmax, intracellular” value with Huh-7 cells (10 μM AT-511, 0-24 h) worked out at 420.3 ± 161.4 pmol/10^6 cells; in data set [1] (10 μM AT-511, 0-24 h) it was 192.0 ± 67.3 pmol/10^6 cells.
